According to article PMC4554599 (Bipolar disorders, 2014):

Assays:
[1] = biological target: T1, acyl-CoA synthetase-4 (Acsl4) (Rattus norvegicus, UniProt O35547); assay type: biochemical
[2] = biological target: T1, acyl-CoA synthetase-4 (Acsl4); test: Michaelis-Menten kinetics, […]AA to AA-CoA conversion; assay type: biochemical

T1 sequence (O35547 whole entry): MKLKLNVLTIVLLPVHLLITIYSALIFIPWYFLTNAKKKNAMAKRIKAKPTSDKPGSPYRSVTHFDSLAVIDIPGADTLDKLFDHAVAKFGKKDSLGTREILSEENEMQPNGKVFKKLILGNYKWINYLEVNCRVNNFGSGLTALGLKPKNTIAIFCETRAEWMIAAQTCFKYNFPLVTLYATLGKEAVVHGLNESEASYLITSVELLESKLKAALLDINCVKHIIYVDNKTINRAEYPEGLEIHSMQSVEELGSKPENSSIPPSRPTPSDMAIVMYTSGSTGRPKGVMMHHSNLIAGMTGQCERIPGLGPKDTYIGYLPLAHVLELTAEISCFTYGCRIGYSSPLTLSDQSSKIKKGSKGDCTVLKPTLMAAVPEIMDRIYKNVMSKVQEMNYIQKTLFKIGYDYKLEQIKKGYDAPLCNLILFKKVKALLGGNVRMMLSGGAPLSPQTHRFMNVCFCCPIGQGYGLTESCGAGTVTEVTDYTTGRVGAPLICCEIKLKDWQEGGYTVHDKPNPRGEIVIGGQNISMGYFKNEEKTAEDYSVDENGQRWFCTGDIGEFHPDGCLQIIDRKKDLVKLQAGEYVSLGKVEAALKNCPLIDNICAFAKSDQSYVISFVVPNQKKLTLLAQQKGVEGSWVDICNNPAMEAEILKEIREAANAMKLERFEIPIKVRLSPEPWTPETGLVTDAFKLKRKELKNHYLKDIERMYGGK

Row | Ki [1] | Compound | Km [2]
1 | 6.38 ± 0.63 mM | CCC(C)C(CC)C(N)=O (racemic) [VCD, 2-ethyl-3-methyl pentanamide] | 
2 |  | CCCCC/C=C\C/C=C\C/C=C\C/C=C\CCCC(=O)O [AA, arachidonic acid] | 4.63 ± 0.67 µM
